Results reported in patent EP1831172B1, “SUBSTITUTED CARBAMIC ACID QUINOLIN-6-YL ESTERS USEFUL AS ACETYLCHOLINESTERASE INHIBITORS” (priority 2004, dated 2006).
Where two headings read alike, the source gives them in different places.

Assays:
[1] = test system: scopolamine induced deficit (dementia/amnesia) in mice; assay: Single trial passive avoidance test, scopolamine induced amnesia; format: in vivo; details: Mus musculus, 24 h
Description: Single trial passive avoidance is widely used as experimental test to assess learning memory functions in rodents. […] Passive Avoidance Test (in vivo): Study was conducted in adult Swiss male mice of 3-4 months (wt. 20-25 g) which were kept in standard housing condition with 12h light and dark cycle. Food and water were available ad libitum. […] Passive avoidance test was studied by a computerized shuttle box (Columbus Instruments, Ohio, USA) provided with a software program PACS 30. The shuttle box comprises of two compartments, isolated by an automated door. […] Each mouse was placed in the bright compartment and on transfer into the dark compartment it was given an electric shock (0.5 mA for 5 s) through floor grid. Transfer of mice from bright to dark compartment was recorded as transfer latency time (TLT) in seconds. TLT was recorded in control and treated groups (1st Trial, acquisition) and then after 24 hours (2nd Trial, retention). An increase in the TLT on 2nd Trial (retention) as compared to 1st Trial (acquisition) was taken as the criterion for successful learning and memory (cognitive activity). Scopolamine induced deficit (Dementia): Scopolamine a muscarinic antagonist, known to produce impairment in cognitive functions (dementia) in human as well as in experimental animals, was used to produce deficit (no significant increase on 2nd trial) in passive avoidance learning. Scopolamine was administered 5 min prior to 1st trial. Reversal of scopolamine induced deficit i.e. significant increase in 2nd trial by test substance indicates potential anti-dementia activity. […]. Drug administration: Scopolamine was administered 5 min prior to 1st trial in test group. Each test compound was administered orally in dose of 20µmol/kg (1% aq. suspension in gum acacia) 1 hour prior to 2nd trial in scopolamine treated mice (n=5). Scopolamine control group received 1 ml/kg of vehicle (1% aq. suspension in gum acacia) orally. Scopolamine was administered 5 min prior to 1st trial in test group. […] Donepezil (10 mg/kg, po, as1% aqueous suspension in gum acacia) was used as standard drug and given 1 hour prior to 2nd trial in scopolamine treated mice. Statistical analysis: Mean values and standard error (S.E.) of mean were calculated for TLT and specific activity of AChE in the different regions of brain samples of each group. The significance of difference between the values of AChE activity and TLT between the groups was determined by one-way ANOVA test that followed by Dunnett's test. Table 4: Effect of the compounds on scopolamine induced amnesia in passive avoidance test

[2] = molecular target: T1, Acetylcholinesterase (Rattus norvegicus, UniProt P37136); assay: Inhibitive effect on acetylcholinesterase activity (Ellman assay, rat brain homogenate supernatant); format: biochemical, rats; details: for % Cholinesterase Enzyme Activity: Control AChE activity = 0.014446 (µmol / mg of protein/min)
T1 construct: Aliquots of this supernatant was diluted in the ratio of 1:10 and used as a source of enzyme for the assay; from tissue; host or cells: whole brain of adult SD male rats; 10% homogenate with 1% Triton X-100, 100,000 x g supernatant
T1 sequence (P37136 32-614): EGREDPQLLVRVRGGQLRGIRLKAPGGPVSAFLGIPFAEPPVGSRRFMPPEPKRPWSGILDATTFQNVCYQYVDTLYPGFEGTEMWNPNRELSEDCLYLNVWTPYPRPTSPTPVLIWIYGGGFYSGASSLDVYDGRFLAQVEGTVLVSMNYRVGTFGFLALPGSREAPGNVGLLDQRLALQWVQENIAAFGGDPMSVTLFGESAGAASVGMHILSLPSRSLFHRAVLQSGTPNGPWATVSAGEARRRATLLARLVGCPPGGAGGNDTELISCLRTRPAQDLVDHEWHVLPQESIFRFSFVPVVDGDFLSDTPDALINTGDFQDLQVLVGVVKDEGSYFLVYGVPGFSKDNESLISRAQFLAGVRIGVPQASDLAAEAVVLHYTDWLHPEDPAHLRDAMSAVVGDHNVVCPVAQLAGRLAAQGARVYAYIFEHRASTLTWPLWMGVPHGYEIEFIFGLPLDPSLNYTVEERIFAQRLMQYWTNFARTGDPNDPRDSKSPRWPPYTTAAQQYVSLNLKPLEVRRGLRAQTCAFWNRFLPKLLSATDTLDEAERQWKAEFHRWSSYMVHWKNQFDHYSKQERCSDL
Description: The study was conducted in adult SD male rats (200-250 g). Rats were perfused under mild ether anesthesia through heart with ice cooled normal saline (0.9% NaCl) to reduce blood-borne cholinesterase from brain. After perfusion whole brain was taken out. 10% (w/v) homogenate of brain was prepared first by homogenizing in Ultra-Turrax T25 homogenizer at a speed of 9500 rpm thrice giving intervals for few seconds in between the runs, with sodium phosphate buffer (30 mmol/lit, pH 7.0). Sodium phosphate buffer was taken in a volume half to the final volume required for 10% homogenate. 1% Triton X-100 (1% w/v in 30 mmol/lit. sodium phosphate buffer, pH 7.0) is then added in a volume to make the final volume for 10% homogenate, slowly while stirring the homogenate on ice.
Kinetic profile of the enzyme activity was studied spectrophotometrically at 412 nm at an interval of 15 s. Assay for each sample was run in duplicate and each experiment was performed thrice.
The specific activity of AChE is expressed in µmoles/min/mg of protein.
[…] Tacrine (1µmol) was used as standard AChE inhibitor (standard control). The AChE inhibitory activity was calculated on the basis of % decrease change from control values i.e. AChE acivity without incubation with any standard or test drug.
Bovine serum albumin (BSA) was used as standard in the concentration of 1 mg/ml. was estimated in the range of 0.01-0. mg/ml.

[3] = % Learning in treated gp - % Learning in Scopolamine gp, test compound orally 20µmol/kg, Donepezil 10 mg/kg po, read-out: % Improvement in Learning
[4] = [2nd Trial - 1st trial/1st trial] x 100, scopolamine treated mice, test compound orally 20µmol/kg, Donepezil 10 mg/kg po, read-out: % Learning

In the case of `CN1CCCc2cc(OC(=O)Nc3ccc(Cl)c(C(F)(F)F)c3)ccc21` [2q, (4-chloro-3-trifluoromethyl-phenyl)-carbamic acid 1-methyl-1,2,3,4-tetrahydro-quinolin-6-yl ester], the change in vivo at 20 µmol/kg [1, 3] is reported as 76% and the change in vivo at 20 µmol/kg [1, 4] is reported as 109%.
For `CN1CCCc2cc(OC(=O)Nc3ccc(Br)cc3)ccc21` [2r, (4-bromo-phenyl)-carbamic acid 1-methyl-1,2,3,4-tetrahydro-quinolin-6-yl ester], the change in vivo at 20 µmol/kg ([1]; po, read-out: % Improvement in Learning) was 62% and the change in vivo at 20 µmol/kg ([1]; po, read-out: % Learning) was 95.6%.
`CCCCCCNC(=O)Oc1ccc2c(c1)CCCN2Cc1ccccc1` [2h, hexyl-carbamic acid 1-benzyl-1,2,3,4-tetrahydro-quinolin-6-yl ester] was tested, and the change in vivo at 20 µmol/kg [1, 3] was 89.2% and the change in vivo at 20 µmol/kg [1, 4] was 123%.
Work on `O=C(Nc1ccccc1Cl)Oc1ccc2ncccc2c1` [1c, (2-chloro-phenyl)-carbamic acid quinolin-6-yl ester] yielded a change in vivo at 20 µmol/kg [1, 3] of 123% and a change in vivo at 20 µmol/kg [1, 4] of 157%.
`O=C(Nc1cccc(Br)c1)Oc1ccc2c(c1)CCCN2` [2c, (3-bromo-phenyl)-carbamic acid 1,2,3,4-tetrahydro-quinolin-6-yl ester] gave a change in vivo at 20 µmol/kg [1, 3] of 67.4% and a change in vivo at 20 µmol/kg [1, 4] of 101%.
Compound `O=C(Nc1ccccc1Cl)Oc1ccc2c(c1)CCCN2Cc1ccccc1` [2i, (2-chloro-phenyl)-carbamic acid 1-benzyl-1,2,3,4-tetrahydro-quinolin-6-yl ester] has a change in vivo at 20 µmol/kg [1, 3] of 89.6%, a change in vivo at 20 µmol/kg [1, 4] of 123% and an IC50 [2] of 3.31 µM. For the same compound, the “% Anticholinesterase Enzyme Inhibition” value ([2]; Conc. 0.1 µm) was 6.45%, the “Cholinesterase Enzyme Activity” value ([2]; Conc. 0.1 µm) was 0.01351 µmol / mg of protein/min and the “% Cholinesterase Enzyme Activity” value ([2]; Conc. 0.1 µm) was 93.54%. For the same compound, the “% Anticholinesterase Enzyme Inhibition” value ([2]; Conc. 0.3 µm) was 16.12%, the “Cholinesterase Enzyme Activity” value ([2]; Conc. 0.3 µm) was 0.01211 µmol / mg of protein/min and the “% Cholinesterase Enzyme Activity” value ([2]; Conc. 0.3 µm) was 83.87%. For the same compound, the “% Anticholinesterase Enzyme Inhibition” value ([2]; Conc. 1 µm) was 25.80%, the “Cholinesterase Enzyme Activity” value ([2]; Conc. 1 µm) was 0.01071 µmol / mg of protein/min and the “% Cholinesterase Enzyme Activity” value ([2]; Conc. 1 µm) was 74.19%. The “% Anticholinesterase Enzyme Inhibition” value ([2]; Conc. 3 µm) was 48.38%, the “Cholinesterase Enzyme Activity” value ([2]; Conc. 3 µm) was 0.007456 µmol / mg of protein/min and the “% Cholinesterase Enzyme Activity” value ([2]; Conc. 3 µm) was 51.61%. The “% Anticholinesterase Enzyme Inhibition” value ([2]; Conc. 10 µm) was 87.09%, the “Cholinesterase Enzyme Activity” value ([2]; Conc. 10 µm) was 0.001864 µmol / mg of protein/min and the “% Cholinesterase Enzyme Activity” value ([2]; Conc. 10 µm) was 12.90%.
Compound `COc1cc2c(cc1OC)C(=O)C(CC1CCN(Cc3ccccc3)CC1)C2` (centres unmarked) [DONEPEZIL, donepezil, reference compound] has a change in vivo at 20 µmol/kg [1, 3] of 134% and a change in vivo at 20 µmol/kg [1, 4] of 168%.
`CCCCCCCNC(=O)Oc1ccc2ncccc2c1` [1b, heptyl-carbamic acid quinolin-6-yl ester] was tested, and the change in vivo at 20 µmol/kg [1, 3] was 107% and the change in vivo at 20 µmol/kg [1, 4] was 140%.
